Measurements from paper PMC6389703, “Identification of Biologically Active Ganoderma lucidum Compounds and Synthesis of Improved Derivatives That Confer Anti-cancer Activities in vitro” (Frontiers in Pharmacology, 2019).
pEC50: −log10 of the molar value. Like-named read-outs stand apart in the source and are kept apart here.

Assays:
[1] = test system: various breast cancer cell lines; assay: Cell viability (CellTiter-Glo or PI staining), various breast cancer cell lines; format: cell-based, human; settings: for pEC50: Homo sapiens, 72-h treatment, CellTiter-Glo or PI staining
Method: (§1) Either 1 × 10^3–4.8 × 10^3 or 4 × 10^2–1.2 × 10^3 cells were seeded to each well of 96- or 384-well white polystyrene flat-bottomed plates (3610 or 8804BC, Corning) in 100 μL or 30 μL media per well, respectively. The concentrations used were experimentally determined to ensure logarithmic growth during the duration of the experiment and prevent adverse effects on cell growth by DMSO exposure. The plates were incubated at 37°C in 5% CO2 for 24 h before treatment. Stock solutions of test compounds (10 mM in DMSO) in nine 3-fold serial dilutions were dispensed via pintool (Biomek). The final concentration of DMSO was 0.3% (v/v) in each well. The plates were incubated for 72 h at 37°C in 5% CO2 and then quenched with CellTiter-Glo® reagent (50 μL/well in 96-well plate, 30 μL/well in 384-well plate) at RT. The positive controls included staurosporine (10 μM), gambogic acid (10 μM), and a toxic quinoline generated in-house. Plates were then incubated at RT for 20 min and centrifuged at 1000 rpm for 1 min. The cytotoxicity assay was performed by using the CellTiter-Glo® Luminescent Cell Viability Assay kit (G7570, Promega, Madison, WI, United States) according to the manufacturer’s instructions. Luminescence was recorded in an Envision plate reader (PerkinElmer).
(§2) Cell viability assays (MTT or PI staining assays) in SUM-149, SUM-190, MDA-MB-231, and MCF10A cells were performed as we previously described ([Suarez-Arroyo et al., 2016]).
(§3) For the CTG assay, 3 or 4 replicate assays were conducted for each experimental condition, and a minimum of 3 independent experiments were conducted for cellular assays. The mean luminescence of each experimental treatment group was normalized as a percentage of the mean intensity of untreated controls. EC50 values (μM) were calculated by Pipeline Pilot Software (Accelrys, Enterprise Platform, San Diego, CA, United States). EC50 values (μM) from the viability assay were calculated from dose response curve-fitting via non-linear regression by using GraphPad Prism (Version 7.0, San Diego, CA, United States). For cell viability, colony formation, cell-cycle progression, cell death, and western blot assays, the analyses were performed via one-way or two-way ANOVA with post-testing for each condition (concentration, cell cycle stage, apoptotic event, cell line) by using GraphPad Prism.

[2] = test system: BJ cells; assay: cells; format: cell-based
Method: as §1, §3

[3] = test system: MCF-7 cells; assay: ROS measurement (CellROX green), MCF-7; format: cell-based, human; settings: for ROS increase (fold): GA-01, ergosterol, 5,6-dehydroergosterol 50 µM, EP 20 µM; for ROS formation reduction when co-treated with NAC: NAC 100 µM, TBHP 100 µM
Method: (§4) SUM-149 or MDA-MB-231 were plated in 96-well plates at a density of 2 × 10^4 and 1 × 10^4 cells/well, respectively, in black 96-well clear bottom tissue culture plates and incubated for 24 h at 37°C. The mRuby-Mito-7 plasmid was obtained from Addgene (#55874 from Michael Davidson). A stable clone of MCF-7 was generated by using Fugene 6 (Roche) to transfect cells (2 × 10^5) with plasmid (2.0 μg) under neomycin selection. A stable cell line was selected by using G418 (300 μg/mL) for 2 weeks, sorted by flow cytometry, and maintained under G418 thereafter. Transfected MCF-7 cells were plated at a density of 2 × 10^4 cells/well in black 96-well clear bottom tissue culture plates and incubated overnight at 37°C. To test for ROS formation and remove background, cells were replenished with fresh PBS with 2% FBS and treated with the desired compounds for 1 h at 37°C. DMSO (0.5%) was used as a negative control, while Menadione (Mena, at 10 μM) or t-Butyl hydroperoxide (TBHP) at 100 μM final concentration were used as a positive control. To evaluate the compounds’ effects on ROS formation inhibition, the free radical scavenger N-acetyl cysteine (NAC) was used. Cells were treated with or without NAC (500 μM or 100 μM) for 1 h, then CellROX® green reagent (Molecular Probes #C10444) was added to a final concentration of 5 μM, and cells were incubated for an additional 30 min at 37°C. Cells were then washed 2× with PBS, followed by fixation with 4% paraformaldehyde (v/v) for 15 min, and 2 more washes with PBS. Fluorescence intensity was measured in a Clariostar® plate reader (BMG LABTECH, Cary, NC, United States) at 535 nm.

[4] = physchem; settings: organic solvent or mixture
[5] = test system: SUM-149 cells; assay: Cell viability assay, SUM-149; format: cell-based, human
Method: as §1, §2, §3

[6] = test system: MDA-MB-231 cells; assay: De novo in-cell protein synthesis (click assay); format: cell-based, human; settings: 2 h; EP 20 μM
Method: First, 2.5 × 10^4 cells/well were seeded in 8-well μ-slides (Ibidi®, #80826) and incubated at 37°C for 12 h. The cells were treated with vehicle, compounds Ganoderic acid A or EP, or cycloheximide (positive control) for 2 h to determine protein synthesis as nascent proteins generated using Biovision’s EZClick^TM Global Protein Synthesis Assay Kit, (#K715-100, Milpitas, CA, United States). The assay includes a robust chemical method based on an alkyne containing o-propargyl-puromycin (OP-puro) probe, which stops translation by forming covalent conjugates with nascent polypeptide chains. Truncated polypeptides are rapidly turned over by the proteasome and can be detected based on the subsequent click reaction with a fluorescent azide. The reaction was conducted according to the manufacturer’s protocol. Cells were imaged at 20× with a Nikon C2 scanning confocal microscope, and the whole image montage was quantified by using Gen5 Software and Lionheart^TM FX Automated Microscope (BioTek, Winooski, VT, United States).

[7] = test system: MDA-MB-231 cells; assay: ApoTox-Glo Triplex assay, MDA-MB-231; format: cell-based, human; settings: MDA-MB-231, 24 h
Method: (§5) Cells (9.5 × 10^4/well in 75 μL of fresh medium) were dispensed in 96-well black flat bottom (8807BC, Corning) plates. The cells were incubated for 12 h at 37°C and then treated with compounds (25 μL) for 24 h. DMSO was used as a negative control, and staurosporine was used as the positive control. […] Then, the Caspase-Glo® 3/7 Reagent was added; plates were mixed briefly by orbital shaking (300-500 rpm for ∼30 s), followed by an additional 30 min incubation at RT. Then luminescence, which correlates with caspase 3/7 activation, was recorded with a plate reader to […] apoptosis induction.

[8] = test system: SUM-149 cells; assay: ApoTox-Glo Triplex assay, SUM-149; format: cell-based, human; settings: SUM-149, 24 h
Method: as §5

[9] = test system: MDA-MB-231 cells; assay: ROS measurement (CellROX green), MDA-MB-231; format: cell-based, human; settings: NAC 500 μM; menadione 10 μM
Method: as §4, with “Cells were treated with or without NAC (500 μM or 100 μM) for 1 h, then CellROX® green reagent (Molecular Probes #C10444) was added to a final concentration of 5 μM, and cells were incubated for an additional 30 min at 37°C. Cells were then washed 2× with PBS, followed by fixation with 4% paraformaldehyde (v/v) for 15 min, and 2 more washes with PBS.” left out

[10] = test system: SUM-149 cells; assay: ROS measurement (CellROX green), SUM-149; format: cell-based, human; settings: NAC 500 μM; EP 20 μM, menadione 10 μM
Method: as §4

[11] = test system: evaluated cell lines; assay: Cell viability, evaluated cell lines (palmitic acid); format: cell-based; settings: tested concentration ≤100μM
Method: Either 1 × 10^3–4.8 × 10^3 or 4 × 10^2–1.2 × 10^3 cells were seeded to each well of 96- or 384-well white polystyrene flat-bottomed plates (3610 or 8804BC, Corning) in 100 μL or 30 μL media per well, respectively. The concentrations used were experimentally determined to ensure logarithmic growth during the duration of the experiment and prevent adverse effects on cell growth by DMSO exposure. The plates were incubated at 37°C in 5% CO2 for 24 h before treatment. Stock solutions of test compounds (10 mM in DMSO) in nine 3-fold serial dilutions were dispensed via pintool (Biomek). The final concentration of DMSO was 0.3% (v/v) in each well. […] Luminescence was recorded in an Envision plate reader (PerkinElmer). […]
as §3, with “For cell viability, colony formation, cell-cycle progression, cell death, and western blot assays, the analyses were performed via one-way or two-way ANOVA with post-testing for each condition (concentration, cell cycle stage, apoptotic event, cell line) by using GraphPad Prism.” left out

Question: With `CC(C)C(C)C=CC(C)C1CCC2C3=CCC4CC(O)CCC4(C)C3CCC21C` (stereo not shown) as the compound, how does the pEC50 [1] read?
Answer: < 4.30

Question: And the “cytotoxic effects in normal BJ cells” value [2]?
Answer: did not induce cytotoxic effects

Question: What about the “ROS increase (fold)” value [3] of the same compound?
Answer: at least a twofold

Question: And the “ROS formation reduction when co-treated with NAC” value (shortened to “ROS formation reduction”) [3]?
Answer: 9–25%

Question: What does the source list for `CC(C)[C@@H](C)/C=C/[C@@H](C)[C@H]1CC[C@H]2C34C=CC5(C[C@@H](OC(=O)NS(=O)(=O)c6ccccc6)CC[C@]5(C)C3CC[C@]12C)OO4` (stereo partly shown) [EP sulfonamide, ergosterol peroxide sulfonamide]?
Answer: solubility [4]: ≥ 10 mM; cytotoxic effects in normal BJ cells ([2]; at the concentrations tested): minimal; pEC50 ([5]; Homo sapiens, SUM149, SUM-149, Figure 10A, read-out: EC50, cancer cell viability (derivatives)): 4.92

Question: What does the source list for `C[C@H](CC(=O)C[C@@H](C)[C@H]1C[C@H](O)[C@@]2(C)C3=C(C(=O)C[C@]12C)[C@@]1(C)CCC(=O)C(C)(C)[C@@H]1C[C@@H]3O)C(=O)O` [GA-01, ganoderic acid A]?
Answer: de novo protein synthesis inhibition [6]: do not inhibit; caspase 3/7 activity [7]: increase caspase 3/7 activity; viability (GF-AFC) [7]: decrease viability; caspase 3/7 activity [8]: increase caspase 3/7 activity; viability (GF-AFC) [8]: decrease viability; pEC50 [1]: < 4.30; cytotoxic effects in normal BJ cells ([2]; at the concentrations tested): did not induce cytotoxic effects; ROS increase (fold) [3]: at least a twofold; ROS formation reduction when co-treated with NAC [3]: 9–25%

Question: Which “ROS formation reduction” value [3] does the source give for `CC(C)(C)OO` [TBHP, t-Butyl hydroperoxide, reference compound] here?
Answer: ~50%

Question: With `CC(C)[C@@H](C)/C=C/[C@@H](C)[C@H]1CC[C@H]2C3=CC=C4C[C@@H](O)CC[C@]4(C)[C@H]3CC[C@]12C` [ergosterol] as the compound, how does the pEC50 [1] read?
Answer: < 4.30

Question: And the “concentration from which cancer cell viability is significantly reduced” value ([1]; breast cancer cellular models)?
Answer: 64 µM

Question: And the “cytotoxic effects in normal BJ cells” value [2]?
Answer: did not induce cytotoxic effects

Question: What about the “ROS increase (fold)” value [3] of the same compound?
Answer: at least a twofold

Question: And the “ROS formation reduction” value [3]?
Answer: 9–25%

Question: And the “concentration at which SUM-149 cell viability is significantly reduced” value ([5]; 72 h)?
Answer: 64 µM

Question: Which results are given for `CC1=CC(=O)c2ccccc2C1=O` [menadione, Menadione, reference compound]?
Answer: reduction in ROS formation in the presence of NAC [9]: about 20%; reduction in ROS formation in the presence of NAC [10]: about 20%

Question: With `CCCCCCCCCCCCCCCC(=O)O` [palmitic acid] as the compound, how does the pEC50 ([2]; Homo sapiens, BJ, Cell Titer Glo, 72-h treatment) read?
Answer: < 4.00

Question: What about the “activity in the evaluated cell lines” value [11] of the same compound?
Answer: did not show activity

Question: And the “activity in the evaluated cell lines” value ([11]; listed as Palmitic acid)?
Answer: No detected biological activity
